# Measured values from patent publication US11084841B1, “Chitooligosaccharide-N-geraniol derivatives, methods for preparing and application thereof” (Jiangnan University, priority 2020, dated 2021).
# What was measured:
# Escherichia coli = test: antibacterial activity test, culture plate with antibacterial substance; assay type: cell-based; settings: 1 mg/ml antibacterial substance, 37° C., 24 hours, versus control plate, FIG. 6
# Procedure: (§1) Gram negative and positive bacterium (Escherichia coli and Staphylococcus aureus) are selected for the antibacterial activity test. The bacteria strain was selected to grow in LB culture medium and sub-culture to the second generation in logarithmic phase. The bacterial suspension was diluted to the required concentration (10^5 CFU/ml) with normal saline. Under the aseptic condition, the bacterial solution and antibacterial substance solution (mix 5 μL bacterial solution and 5 mL LB liquid medium containing 1 mg/ml antibacterial substance) were added onto the culture plate and mixed evenly. The control group was the culture plate without antibacterial substance, and then the culture plates were incubated at 37° C. for 24 hours to observe the growth of bacteria.
# Staphylococcus aureus = test: as above; assay type: cell-based; settings: 1 mg/ml antibacterial substance, 37° C., 24 hours, versus control plate, FIG. 5
# Procedure: as §1
compound,measurement,setting,value
"CC(C)=CCC/C(C)=C/CO [Ger, (2E)-3,7-dimethylocta-2,6-dien-1-ol]",inhibition of bacterial growth,Escherichia coli,able to inhibit
same,inhibition of bacterial growth,Staphylococcus aureus,able to inhibit
